US9682125B2, “Compositions and methods for treating cognitive deficits” (Case Western Reserve University, priority 2011, dated 2017)
No end group written: not given here.

Experiments:
[1] = Body weight change during 5-week pramlintide minipump infusion; assay type: in vivo; conditions: over 5-week treatment period, 0.24 mg/kg/day s.c. minipump, SAMP8 mice
Description: SAMP8 and SAM-resistant 1 (SAMR1) mice were obtained from an established colony at Case Western Reserve University. All animals were group housed, provided ad libitum access to a standard diet and water, and were exposed to a 12/12 light/dark daily cycle. The mice were housed under pathogen-free conditions at a temperature of 21±1.5° C.
(§1) All SAMP8 mice were treated with either saline or pramlintide beginning at 6 months of age. A subcutaneous ALZET® osmotic minipump (Model 2002, Durect Corp., Cupertino, Calif., USA) was surgically implanted into all mice as described previously^26. The osmotic mini-pump infused 0.24 mg/kg/day pramlintide acetate (0.6 mg/mL pramlintide, Amylin Pharmaceuticals, Inc., San Diego, Calif.) or saline at a rate of 0.5 μL/hr. Pumps were replaced with new refilled pumps every two weeks throughout the study duration. All animals were weighed weekly throughout the course of the experiment.
To investigate the effects of pramlintide on memory, SAMP8 mice were continually infused with saline or pramlintide for a total of five weeks. Consistent with pramlintide's known anorexic effect, the pramlintide-treated mice experienced a change in body weight of −5.8% (Std=4.7) over the course of the treatment period as compared to a weight change of −0.1% (6.1) for the saline-treated mice. […]

SAMP8 mice [2] = test: Object recognition task; assay type: in vivo; conditions: 7-month SAMP8 mice
Description: as §1
A total of 20 SAMP8 mice were used in the object recognition task. […] The mice were allowed to explore the environment for 10 minutes, during which their movements were recorded with a tracking system. […]
Videos recordings of the retention session were scored by an investigator blinded to the treatment groups. Object exploration, defined as the duration of time in which the head of the mouse faced less than ½ cm from the object, was measured during the training and retention sessions. The frequency of object exploration was also recorded, as well as the frequency and time spent rearing and grooming to determine general exploratory behavior. […] The recognition index was calculated as the percent of time spent exploring the novel object versus the total time spent exploring the objects.

synapsin I = test: Western blotting of hippocampal synapsin I; assay type: in vivo; conditions: SAMP8 mice treated five weeks, vs saline
Description: (§2) All SAMP8 mice were sacrificed by lethal overdose 5 weeks after the initiation of the pramlintide and saline treatments. The brains were harvested and the hippocampus was dissected and homogenized in protease and phosphatase inhibitor-supplemented 1×RIPA lysis/extraction buffer (Pierce). Total protein was quantified using the BCA Protein Assay Kit (Pierce). 10-20 μg of protein was run in a 10% SDS-PAGE gel and the protein was transferred onto Polyvinylidene fluoride (PVDF) membranes (Millipore). After blocking for one hour in 5% milk, the membranes were incubated overnight at 4° C. in the primary antibody at a 1:1000 dilution, followed by a 1-hour incubation with HRP-conjugated IgG at a 1:10,000 dilution. Primary antibodies used were CDK5 (Millipore), P35/P25 (Millipore), Synapsin I (Santa Cruz), and HO-1 (Gift from Dr. Zhu). The blots were developed using Immobilon Western Chemiluminescent HRP Substrate (Millipore) and imaged using FluorChem M (ProteinSimple). Membranes were stripped using Restore Western Blot Stripping Buffer (Thermo Scientific) for reprobing. Quantifications were performed using ImageJ software.

CDK5 = test: Western blotting of hippocampal CDK5; assay type: in vivo; conditions: SAMP8 mice treated five weeks, relative to saline-treated group
Description: as §2

p35, p25 = test: Western blotting of hippocampal p35/p25; assay type: in vivo; conditions: hippocampus, SAMP8 mice, five weeks, vs saline
Description: as §2

HO-1 = test: Western blotting of hippocampal HO-1; assay type: in vivo; conditions: SAMP8 mice, 5 weeks, compared to saline-treated mice
Description: as §2

cyclooxygenase 2 (COX-2) = test: Cellular stress immunohistochemistry, COX-2; assay type: in vivo, SAMR1 mice; conditions: mice treated for 2 weeks, compared to saline-treated mice
Description: (§3) To determine the acute effects of pramilide on potential mechanisms associated with cognitive function a total of 12 control mice (SAMR1) 9 months of age were used to measure the effects of pramlintide on hippocampal neurogenesis. Half of the mice (n=6) were infused by minipump with pramlintide for a total of two weeks, while the other half (n=6) received minipumps filled with saline. For the last seven days of the experiment, all mice received daily intraperitoneal injections of 50 mg/kg BRDU (Sigma, St Louis, […].) dissolved in 0.9% saline and filtered at […]. One day after the last BRDU injection, mice were deeply anesthetized and transcranially perfused using 4% paraformaldehyde in 0.9% saline. The brains were then extracted and post-fixed in 4% paraformaldehyde for 24 hours, after which they were placed in a 30% sucrose solution for three days. All brains were quick-frozen and then cut into 40 μm sagital sections using a cryostatand stored at 4° C. as floating sections.
(§4) To determine whether pramilide had more acute neuroprotective effects in non-pathological conditions, sections from the same mice used for neurogenesis were used to determine markers of cellular stress. […]
(§5) Tissue sections were quantified. […] Six fields across the hippocampus were drawn and % staining within that field was measured using Metamorph software. […]

4-Hydroxynonenal (HNE) = test: Cellular stress immunohistochemistry, HNE; assay type: in vivo, SAMR1 mice; conditions: mice treated for 2 weeks, compared to saline-treated mice
Description: as §3, §4, §5

[3] = tested on: BrdU-positive cells in the dentate gyrus; test: BrdU immunostaining, hippocampal neurogenesis; assay type: in vivo; conditions: 9-month SAMR1 mice, two weeks minipump, compared to saline-treated mice
Description: as §3
BRDU immunohistochemistry was performed as previously described. […]
A validated sterology protocol was used to quantify BrdU-labeled cells in the dentate gyrus. […] All BrdU-positive cells in the dentate gyrus of the hippocampus were counted in every 6th section through the hippocampus, for a total of 12 sections per animal. […]

SAMP8 mice [4] = test: Morris water maze (learning, probe and retention trials); assay type: in vivo; conditions: chronic amylin; for MWM maze learning: acute leptin at time of testing, FIGS. 10 and 11
Description: In this Example, we examined whether chronic amylin administration has beneficial effects on cognition using senescence-accelerated SAMP8 mice, a validated animal model of mild cognitive impairment (MCI)/early Alzheimer's disease (AD) in which the mice experience premature cognitive deficits. Given that the anorectic effects of amylin are specifically synergistic with another metabolic hormone, leptin, we also studied whether amylin's effects on cognition might be enhanced when used in conjunction with leptin.
(§6) To validate the hypothesis that amylin is a cognitive enhancing drug that can be given alone and that may provide benefit for cognitive dysfunction associated diseases such as AD or age-related cognitive dysfunction (normal or Mild cognitive impairment (MCI)), we determined the ability of chronic treatment with amylin to improve cognitive function in the Morris water maze and object recognition tasks in the age accelerated SAMP8 mouse model, a model of MCI/early AD. […] Furthermore, improvement of amylin treatment in the retention trial, carried out 24 hrs reflects the ability of amylin to improve consolidation to long-term, permanent memory. (FIG. 9).
(§7) We were able to test this hypothesis under chronic amylin treatment and acute delivery of leptin at time of testing in SAMP8 mice. […] The slope of curve for the SAMP8 mice treated with a combination of amylin and leptin was the steepest […]. […] Novel object recognition testing, another cognition-based test, supported our findings in the MWM. […] It is important to note that these studies were carried out in cognitively impaired animals with leptin treatments under acute conditions. As such, it is likely that the lack of observable synergistic additive magnitude derives from insufficient length of leptin treatment.

SAMP8 mice [5] = test: Novel object recognition testing; assay type: in vivo; conditions: chronic amylin, leptin delivered acutely, vs saline, FIG. 13
Description: as §6, §7

Molecule	change in body weight [1] [%]	recognition index (SAMP8 mice [2]; 5 weeks infusion, retention test 3 hours after training, vs saline)	difference score (recognition memory) (SAMP8 mice [2]; chronic treatment, vs saline-treated controls)	hippocampal expression of synapsin I (synapsin I)	hippocampal expression of the protein CDK5 (CDK5)	amount of cleavage product p25 (p35, p25)	amount of the CDK5 activator p35 (p35, p25)	ratio of p25/p35 (p35, p25)	expression of the protein HO-1 in the hippocampus (HO-1)	COX-2 immunostaining in the hippocampus (cyclooxygenase 2 (COX-2))	HNE immunostaining in the hippocampus (4-Hydroxynonenal (HNE))	more BrdU-positive cells in the dentate gyrus [3] [%]	learning of the MWM task (SAMP8 mice [4]; SAMP8 (P8) vs non-treated P8, FIG. 8)	MWM probe trial (SAMP8 mice [4]; SAMP8 vs non-treated P8, FIG. 9)	MWM maze learning (SAMP8 mice [4]; SAMP8 mice)	MWM retention trial (SAMP8 mice [4]; retention carried out 24 hrs, FIG. 9)	MWM probe/retention trials (SAMP8 mice [4]; acute leptin, SAMP8 mice, compared to saline, FIG. 12)	novel object recognition, discrimination ratio (SAMP8 mice [5])
CC[C@H](C)[C@H](NC(=O)[C@@H]1CCCN1C(=O)CNC(=O)[C@H](Cc1ccccc1)NC(=O)[C@H](CC(N)=O)NC(=O)[C@H](CC(N)=O)NC(=O)[C@H](CO)NC(=O)[C@H](CO)NC(=O)[C@H](Cc1c[nH]cn1)NC(=O)[C@@H](NC(=O)[C@H](CC(C)C)NC(=O)[C@H](Cc1ccccc1)NC(=O)[C@H](CC(N)=O)NC(=O)[C@H](C)NC(=O)[C@H](CC(C)C)NC(=O)[C@H](CCCNC(=N)N)NC(=O)[C@H](CCC(N)=O)NC(=O)[C@@H](NC(=O)[C@H](C)NC(=O)[C@@H]1CSSC[C@H](NC(=O)[C@@H](N)CCCCN)C(=O)N[C@@H](CC(N)=O)C(=O)N[C@@H]([C@@H](C)O)C(=O)N[C@@H](C)C(=O)N[C@@H]([C@@H](C)O)C(=O)N1)[C@@H](C)O)C(C)C)C(=O)N[C@@H](CC(C)C)C(=O)N1CCC[C@H]1C(=O)N1CCC[C@H]1C(=O)N[C@H](C(=O)N[C@@H](CC(N)=O)C(=O)N[C@H](C(=O)NCC(=O)N[C@@H](CO)C(=O)N[C@@H](CC(N)=O)C(=O)N[C@H](C(=O)N[C@@H](Cc1ccc(O)cc1)C(N)=O)[C@@H](C)O)C(C)C)[C@@H](C)O [pramlintide]	−5.8	0.67 (Std=0.06)	significantly increased	significantly increase	significantly increased	no differences	no differences	no differences	significantly decreased	significant decreases	trend toward decreased	40						
amylin: 37-amino acid polypeptide hormone normally co-secreted with insulin by pancreatic beta cells (KCNTATCATQRLANFLVHSSNNFGAILSSTNVGSNTY; not fully specified (C-terminus, bridges); cysteine pairing not given here; UniProt P10997 34-70, looked up)													potent effect on learning	perform better than non-treated P8	improved	improvement		
leptin: metabolic hormone, delivered acutely at time of testing (protein, UniProt P41160 22-167, looked up) Leptin: VPIQKVQDDTKTLIKTIVTRINDISHTQSVSAKQRVTGLDFIPGLHPILSLSKMDQTLAVYQQVLTSLPSQNVLQIANDLENLRDLLHLLAFSKSCSLPQTSGLQKPESLDGVLEASLYSTEVVALSRLQGSLQDILQQLDVSPEC															improved		no benefits	no benefits
